Test system: 817829-284-R-J1-PDC complex spheroid viability
Test: Anticancer human tumor 817829-284-R-J1-PDC patient-derived colon adenocarcinoma cell line growth inhibition [POLQ]
Conditions: for IC50: curve of first compound; for viability, T/C: stronger effect = lower value
Procedure, shortened: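 Complex spheroid viability model combining PDC tumour cells with endothelial (HUVEC) and MSC stromal cells. Novobiocin, ART-558 or RP6685 were tested singly and in combination with standard and investigational anticancer drugs. Each was titrated in half-log steps from near clinical Cmax, or from 10 microM where Cmax was unknown.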

[1] = second compound 0.0316 µM, first compound 0.0316 µM
[2] = second compound 0.0316 µM, first compound 0.1 µM
[3] = second compound 0.0316 µM, first compound 0.316 µM
[4] = second compound 0.0316 µM, first compound 1 µM
[5] = second compound 0.0316 µM, first compound 3.16 µM
[6] = second compound 0.0316 µM, first compound 10 µM
[7] = second compound 0.1 µM, first compound 0.0316 µM
[8] = second compound 0.1 µM, first compound 0.1 µM
[9] = second compound 0.1 µM, first compound 0.316 µM
[10] = second compound 0.1 µM, first compound 1 µM
[11] = second compound 0.1 µM, first compound 3.16 µM
[12] = second compound 0.1 µM, first compound 10 µM
[13] = second compound 0.316 µM, first compound 0.0316 µM
[14] = second compound 0.316 µM, first compound 0.1 µM
[15] = second compound 0.316 µM, first compound 0.316 µM
[16] = second compound 0.316 µM, first compound 1 µM
[17] = second compound 0.316 µM, first compound 3.16 µM
[18] = second compound 0.316 µM, first compound 10 µM
[19] = second compound 1 µM, first compound 0.0316 µM
[20] = second compound 1 µM, first compound 0.1 µM
[21] = second compound 1 µM, first compound 0.316 µM
[22] = second compound 1 µM, first compound 1 µM
[23] = second compound 1 µM, first compound 3.16 µM
[24] = second compound 1 µM, first compound 10 µM
[25] = second compound 3.16 µM, first compound 0.0316 µM
[26] = second compound 3.16 µM, first compound 0.1 µM
[27] = second compound 3.16 µM, first compound 0.316 µM
[28] = second compound 3.16 µM, first compound 1 µM
[29] = second compound 3.16 µM, first compound 3.16 µM
[30] = second compound 3.16 µM, first compound 10 µM
[31] = second compound 10 µM, first compound 0.0316 µM
[32] = second compound 10 µM, first compound 0.1 µM
[33] = second compound 10 µM, first compound 0.316 µM
[34] = second compound 10 µM, first compound 1 µM
[35] = second compound 10 µM, first compound 3.16 µM
[36] = second compound 10 µM, first compound 10 µM
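Also: spheroids exposed to compounds for 7 days.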
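For viability, T/C in this document: 100% = DMSO vehicle-treated spheroids.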

SMILES: CC(C)n1c(=O)n(C)c2cnc3cc(F)c(-c4ccc(OCCCN5CCCCC5)nc4)cc3c21 + Cc1cccc(N(C)C(=O)C2C(O)CCN2c2nc(C)cc(C(F)(F)F)c2C#N)c1
- IC50 (second compound 0.0316 µM): 6.74 µM
- IC50 (second compound 0.1 µM): 7.64 µM
- IC50 (second compound 0.316 µM): 8.32 µM
- IC50 (second compound 1 µM): 5.97 µM
- IC50 (second compound 3.16 µM): 8.23 µM
- IC50 (second compound 10 µM): 6.08 µM
- viability, T/C [1]: 91.7%
- viability, T/C [2]: 77.1%
- viability, T/C [3]: 96.6%
- viability, T/C [4]: 86.3%
- viability, T/C [5]: 84.3%
- viability, T/C [6]: 32.1%
- viability, T/C [7]: 73.6%
- viability, T/C [8]: 107%
- viability, T/C [9]: 91.6%
- viability, T/C [10]: 76.8%
- viability, T/C [11]: 106%
- viability, T/C [12]: 37.5%
- viability, T/C [13]: 87.3%
- viability, T/C [14]: 83.3%
- viability, T/C [15]: 94.4%
- viability, T/C [16]: 87.6%
- viability, T/C [17]: 83%
- viability, T/C [18]: 43.8%
- viability, T/C [19]: 99.7%
- viability, T/C [20]: 86.5%
- viability, T/C [21]: 99.1%
- viability, T/C [22]: 72.6%
- viability, T/C [23]: 73.7%
- viability, T/C [24]: 34.4%
- viability, T/C [25]: 93.8%
- viability, T/C [26]: 70.6%
- viability, T/C [27]: 78.1%
- viability, T/C [28]: 100%
- viability, T/C [29]: 70.5%
- viability, T/C [30]: 45.8%
- viability, T/C [31]: 85.7%
- viability, T/C [32]: 81.6%
- viability, T/C [33]: 74%
- viability, T/C [34]: 67.8%
- viability, T/C [35]: 79%
- viability, T/C [36]: 28.9%

SMILES: CC1COCCN1c1cc(-c2ccnn2C)c2ccnc(-c3ccn[nH]3)c2n1 (stereo not drawn) + Cc1cccc(N(C)C(=O)C2C(O)CCN2c2nc(C)cc(C(F)(F)F)c2C#N)c1
- IC50 (second compound 0.0316 µM): < 0.0316 µM
- IC50 (second compound 0.1 µM): < 0.0316 µM
- IC50 (second compound 0.316 µM): < 0.0316 µM
- IC50 (second compound 1 µM): < 0.0316 µM
- IC50 (second compound 3.16 µM): 0.0327 µM
- IC50 (second compound 10 µM): < 0.0316 µM
- viability, T/C [1]: 36.6%
- viability, T/C [2]: 19.1%
- viability, T/C [3]: 6.76%
- viability, T/C [4]: 4.35%
- viability, T/C [5]: 3.09%
- viability, T/C [6]: 2.85%
- viability, T/C [7]: 33.4%
- viability, T/C [8]: 16.9%
- viability, T/C [9]: 7.78%
- viability, T/C [10]: 4.15%
- viability, T/C [11]: 3.55%
- viability, T/C [12]: 2.55%
- viability, T/C [13]: 45.2%
- viability, T/C [14]: 15.3%
- viability, T/C [15]: 6.75%
- viability, T/C [16]: 4.29%
- viability, T/C [17]: 3.67%
- viability, T/C [18]: 2.6%
- viability, T/C [19]: 33.9%
- viability, T/C [20]: 13.1%
- viability, T/C [21]: 5.41%
- viability, T/C [22]: 4.86%
- viability, T/C [23]: 3.3%
- viability, T/C [24]: 2.87%
- viability, T/C [25]: 50.8%
- viability, T/C [26]: 21.9%
- viability, T/C [27]: 5.75%
- viability, T/C [28]: 3.57%
- viability, T/C [29]: 3.34%
- viability, T/C [30]: 3.14%
- viability, T/C [31]: 36.6%
- viability, T/C [32]: 20%
- viability, T/C [33]: 7.43%
- viability, T/C [34]: 4.51%
- viability, T/C [35]: 3.57%
- viability, T/C [36]: 2.62%

SMILES: CCc1cc2c(N3CCc4c(cc(Cn5ccnc5)cc4-c4cn(C)nc4C(F)(F)F)C3=O)ccnc2c(OC)n1 + Cc1cccc(N(C)C(=O)C2C(O)CCN2c2nc(C)cc(C(F)(F)F)c2C#N)c1
- IC50 (second compound 0.0316 µM): 3.28 µM
- IC50 (second compound 0.1 µM): 4.18 µM
- IC50 (second compound 0.316 µM): 4.63 µM
- IC50 (second compound 1 µM): 2.77 µM
- IC50 (second compound 3.16 µM): 2.43 µM
- IC50 (second compound 10 µM): 1.57 µM
- viability, T/C [1]: 84%
- viability, T/C [2]: 73.8%
- viability, T/C [3]: 67.4%
- viability, T/C [4]: 64.2%
- viability, T/C [5]: 49.7%
- viability, T/C [6]: 38.4%
- viability, T/C [7]: 87.5%
- viability, T/C [8]: 96%
- viability, T/C [9]: 72.7%
- viability, T/C [10]: 77.2%
- viability, T/C [11]: 54.7%
- viability, T/C [12]: 31.2%
- viability, T/C [13]: 95.5%
- viability, T/C [14]: 87.9%
- viability, T/C [15]: 76.9%
- viability, T/C [16]: 73.8%
- viability, T/C [17]: 51.3%
- viability, T/C [18]: 41.1%
- viability, T/C [19]: 90.6%
- viability, T/C [20]: 82.2%
- viability, T/C [21]: 76.8%
- viability, T/C [22]: 65.4%
- viability, T/C [23]: 47.1%
- viability, T/C [24]: 29.3%
- viability, T/C [25]: 84.9%
- viability, T/C [26]: 94.9%
- viability, T/C [27]: 86.8%
- viability, T/C [28]: 61.1%
- viability, T/C [29]: 50.1%
- viability, T/C [30]: 32.8%
- viability, T/C [31]: 92.9%
- viability, T/C [32]: 71.8%
- viability, T/C [33]: 69.1%
- viability, T/C [34]: 56.8%
- viability, T/C [35]: 42.1%
- viability, T/C [36]: 30.5%

SMILES: COc1ccc([C@@H](O)c2cc(-c3ncnc4cc(N5CCOCC5)ccc34)c(F)cc2Cl)nn1 + Cc1cccc(N(C)C(=O)C2C(O)CCN2c2nc(C)cc(C(F)(F)F)c2C#N)c1
- IC50 (second compound 0.0316 µM): 0.715 µM
- IC50 (second compound 0.1 µM): 0.719 µM
- IC50 (second compound 0.316 µM): 0.932 µM
- IC50 (second compound 1 µM): 1.22 µM
- IC50 (second compound 3.16 µM): 0.474 µM
- IC50 (second compound 10 µM): 0.751 µM
- viability, T/C [1]: 112%
- viability, T/C [2]: 112%
- viability, T/C [3]: 72%
- viability, T/C [4]: 42.3%
- viability, T/C [5]: 22.3%
- viability, T/C [6]: 17.9%
- viability, T/C [7]: 103%
- viability, T/C [8]: 80.3%
- viability, T/C [9]: 66.9%
- viability, T/C [10]: 40.8%
- viability, T/C [11]: 32.7%
- viability, T/C [12]: 19.9%
- viability, T/C [13]: 107%
- viability, T/C [14]: 74.6%
- viability, T/C [15]: 102%
- viability, T/C [16]: 47.1%
- viability, T/C [17]: 28.3%
- viability, T/C [18]: 15.5%
- viability, T/C [19]: 111%
- viability, T/C [20]: 105%
- viability, T/C [21]: 92.2%
- viability, T/C [22]: 54.5%
- viability, T/C [23]: 28.1%
- viability, T/C [24]: 21.9%
- viability, T/C [25]: 98.6%
- viability, T/C [26]: 130%
- viability, T/C [27]: 62%
- viability, T/C [28]: 38.3%
- viability, T/C [29]: 27%
- viability, T/C [30]: 18.6%
- viability, T/C [31]: 92%
- viability, T/C [32]: 81%
- viability, T/C [33]: 70.8%
- viability, T/C [34]: 41.4%
- viability, T/C [35]: 26.3%
- viability, T/C [36]: 13.5%
